Literature values in US12357536B2, “Containers with selective dissolved gas content” (BAXTER INTERNATIONAL INC., priority 2021, dated 2025).
Like-named read-outs stand apart in the source and are kept apart here.

Settings: cited from earlier work; for Solubility of oxygen: 760 mm Hg, salinity 0.0 ppt

SMILES: O=O [oxygen]
- Solubility of oxygen (3.0 °C): 13.445 ppm
- Solubility of oxygen (3.2 °C): 13.374 ppm
- Solubility of oxygen (3.4 °C): 13.303 ppm
- Solubility of oxygen (3.6 °C): 13.233 ppm
- Solubility of oxygen (3.8 °C): 13.163 ppm
- Solubility of oxygen (4.0 °C): 13.094 ppm
- Solubility of oxygen (4.2 °C): 13.025 ppm
- Solubility of oxygen (4.4 °C): 12.957 ppm
- Solubility of oxygen (4.6 °C): 12.890 ppm
- Solubility of oxygen (4.8 °C): 12.823 ppm
- Solubility of oxygen (5.0 °C): 12.757 ppm
- Solubility of oxygen (5.2 °C): 12.692 ppm
- Solubility of oxygen (5.4 °C): 12.627 ppm
- Solubility of oxygen (5.6 °C): 12.563 ppm
- Solubility of oxygen (5.8 °C): 12.499 ppm
- Solubility of oxygen (6.0 °C): 12.436 ppm
- Solubility of oxygen (6.2 °C): 12.373 ppm
- Solubility of oxygen (6.4 °C): 12.311 ppm
- Solubility of oxygen (6.6 °C): 12.249 ppm
- Solubility of oxygen (6.8 °C): 12.188 ppm
- Solubility of oxygen (7.0 °C): 12.127 ppm
- Solubility of oxygen (7.2 °C): 12.067 ppm
- Solubility of oxygen (7.4 °C): 12.008 ppm
- Solubility of oxygen (7.6 °C): 11.949 ppm
- Solubility of oxygen (7.8 °C): 11.980 ppm
- Solubility of oxygen (8.0 °C): 11.832 ppm
- Solubility of oxygen (8.2 °C): 11.774 ppm
- Solubility of oxygen (8.4 °C): 11.717 ppm
- Solubility of oxygen (8.6 °C): 11.661 ppm
- Solubility of oxygen (8.8 °C): 11.604 ppm
- Solubility of oxygen (9.0 °C): 11.549 ppm
- Solubility of oxygen (9.2 °C): 11.493 ppm
- Solubility of oxygen (9.4 °C): 11.439 ppm
- Solubility of oxygen (9.6 °C): 11.384 ppm
- Solubility of oxygen (9.8 °C): 11.331 ppm
- Solubility of oxygen (10.0 °C): 11.277 ppm
- Solubility of oxygen (10.2 °C): 11.224 ppm
- Solubility of oxygen (10.4 °C): 11.172 ppm
- Solubility of oxygen (10.6 °C): 11.119 ppm
- Solubility of oxygen (10.8 °C): 11.068 ppm
- Solubility of oxygen (11.0 °C): 11.016 ppm
- Solubility of oxygen (11.2 °C): 10.995 ppm
- Solubility of oxygen (11.4 °C): 10.915 ppm
- Solubility of oxygen (11.6 °C): 10.865 ppm
- Solubility of oxygen (11.8 °C): 10.815 ppm
- Solubility of oxygen (12.0 °C): 10 766 ppm
- Solubility of oxygen (12.2 °C): 10.717 ppm
- Solubility of oxygen (12.4 °C): 10.669 ppm
- Solubility of oxygen (12.6 °C): 10.620 ppm
- Solubility of oxygen (12.8 °C): 10.573 ppm
- Solubility of oxygen (13.0 °C): 10.525 ppm
- Solubility of oxygen (13.2 °C): 10.478 ppm
- Solubility of oxygen (13.4 °C): 10.432 ppm
- Solubility of oxygen (13.6 °C): 10.386 ppm
- Solubility of oxygen (13.8 °C): 10.340 ppm
- Solubility of oxygen (14.0 °C): 10.294 ppm
- Solubility of oxygen (14.2 °C): 10.249 ppm
- Solubility of oxygen (14.4 °C): 10.204 ppm
- Solubility of oxygen (14.6 °C): 10.160 ppm
- Solubility of oxygen (14.8 °C): 10.115 ppm
- Solubility of oxygen (15.0 °C): 10.072 ppm
- Solubility of oxygen (15.2 °C): 10.028 ppm
- Solubility of oxygen (15.4 °C): 9.985 ppm
- Solubility of oxygen (15.6 °C): 9.942 ppm
- Solubility of oxygen (15.8 °C): 9.900 ppm
- Solubility of oxygen (16.0 °C): 9.858 ppm
- Solubility of oxygen (16.2 °C): 9.816 ppm
- Solubility of oxygen (16.4 °C): 9.774 ppm
- Solubility of oxygen (16.6 °C): 9.733 ppm
- Solubility of oxygen (16.8 °C): 9.692 ppm
- Solubility of oxygen (17.0 °C): 9.651 ppm
- Solubility of oxygen (17.2 °C): 9.611 ppm
- Solubility of oxygen (17.4 °C): 9.571 ppm
- Solubility of oxygen (17.6 °C): 9.531 ppm
- Solubility of oxygen (17.8 °C): 9.492 ppm
- Solubility of oxygen (18.0 °C): 9.453 ppm
- Solubility of oxygen (18.2 °C): 9.414 ppm
- Solubility of oxygen (18.4 °C): 9.375 ppm
- Solubility of oxygen (18.6 °C): 9.337 ppm
- Solubility of oxygen (18.8 °C): 9.299 ppm
- Solubility of oxygen (19.0 °C): 9.261 ppm
- Solubility of oxygen (19.2 °C): 9.224 ppm
- Solubility of oxygen (19.4 °C): 9.187 ppm
- Solubility of oxygen (19.6 °C): 9.150 ppm
- Solubility of oxygen (19.8 °C): 9.113 ppm
- Solubility of oxygen (20.0 °C): 9.077 ppm
- Solubility of oxygen (20.2 °C): 9.040 ppm
- Solubility of oxygen (20.4 °C): 9.004 ppm
- Solubility of oxygen (20.6 °C): 8.969 ppm
- Solubility of oxygen (20.8 °C): 8.933 ppm
- Solubility of oxygen (21.0 °C): 8.989 ppm
- Solubility of oxygen (21.2 °C): 8.863 ppm
- Solubility of oxygen (21.4 °C): 8.829 ppm
- Solubility of oxygen (21.6 °C): 8.794 ppm
- Solubility of oxygen (21.8 °C): 8.760 ppm
- Solubility of oxygen (22.0 °C): 8.726 ppm
- Solubility of oxygen (22.2 °C): 8.693 ppm
- Solubility of oxygen (22.4 °C): 8.659 ppm
- Solubility of oxygen (22.6 °C): 8.626 ppm
- Solubility of oxygen (22.8 °C): 8.583 ppm
- DO concentration of a solution saturated with oxygen (about room temperature (approx.) 21° C): about 8 ppm
